Measured values: US8148392B2, “2-indolyl imidazo [4,5-d] phenanthroline derivatives and their use in the treatment of cancer” (Lorus Therapeutics Inc., priority 2005, dated 2012)
“Also recorded” adds a separate entry of the source.

Legend:
[1] = system: p21 protein; test: p21 protein in HT-29 total cell lysate, ELISA / Western blot; format: cell-based, human; conditions: HT-29, 1 μM
Protocol: The expressions of p21 gene and proteins were examined following treatment with compound 3. Gene expression of p21 in HT-29 cells treated with 1 μM compound 3 was determined at the indicated times as follows. Total RNA was extracted and gene expression level was determined by RT-PCR (FIG. 42A). The level of p21 protein in total cell lysate was measured by ELISA (FIG. 42B) as follows. HT-29 cells were treated with 1 μM compound 3 with and without 20 μM MG-132 (proteasome inhibitor) for indicated time.

[2] = system: Cyclin E; test: Cyclin E protein in HT-29 cells, Western blotting; format: cell-based, human; conditions: HT-29, 1 μM
[3] = system: Cyclin D1 protein; test: Cyclin D1 protein in HT-29 cells, Western blotting; format: cell-based, human; conditions: HT-29, 1 μM
Protocol: Gene and protein expression of Cyclin D1 after treatment with compound 3 was determined by RT-PCR and Western blotting as shown in FIGS. 43A and 43B, respectively, as follows. HT-29 cells were treated with 1 μM compound 3 for indicated time. Total RNA was extracted and gene expression level was determined by RT-PCR. Cyclin D1 protein expression in HT-29 cell lysate was determined by SDS-PAGE followed by Western blotting.
To identify the cell cycle regulatory pathway involved in compound 3-mediated cell cycle arrest as shown in Example 23 and 41, particularly associated with G1/S phase, expression of the key cell cycle regulator of G1/S phase progression, Cyclin D1, was examined.

[4] = In vitro chelation of zinc ions, Zinquin fluorescence; format: physicochemical; conditions: ZnCl2 2 μM in PBS, Zinquin 10 μM, 30 min
Protocol: To determine the chelation property of compound 3 with zinc ions in vitro, free available zinc ions were measured by spectrofluorometry using zinc-sensitive fluorescent dye Zinquin, following pre-incubation of ZnCl2 with different concentrations of compound 3 (FIG. 36). ZnCl2 2 μM was incubated with indicated concentrations of compound 3, in phosphate buffer saline (PBS), followed by addition of Zinquin, 10 μM final concentration for 30 min. Zinquin fluorescence upon zinc binding was measured in a Fluoroskan Ascent luminescence spectrofluorometer, at 364 nm excitation and 485 nm emission wavelengths.

[5] = system: MTF-1; test: MTF-1 DNA-binding activity, EMSA, HT-29 nuclear extract; format: cell-based, human
Protocol: To verify the change in MTF-1 activity at earlier time of incubation, prior to the significant decrease in MTF-1 gene expression, MTF-1 nuclear translocation and DNA-binding activity was determined in nuclear extract of HT-29 cells treated with compound 3 for 4 hr, by electrophoretic mobility shift assay (EMSA) (FIG. 40B) as follows. HT-29 cells were treated with DMSO, 35 μM ZnCl2 (positive control) and 1 μM compound 3 for 4 hr. Nuclear protein was extracted and incubated with biotin-labeled MTF-1 binding oligonucleotide probes. The retarded mobility of labeled probe upon MTF-1 binding was observed as a band shift (FIG. 40B). […] In zinc-treated groups, 2 additional shift bands (open arrows) were observed (lane 3), indicating the increase in zinc-dependent MTF-1 activity. […] Excess unlabeled probes were added in lane 2, 4 and 6 to compete the labeled probes binding with MTF-1 in the nuclear extract, showing the specificity of MTF-1-binding shift bands in lane 1, 3 and 5, respectively.
HT-29 cells were treated with 35 μM ZnCl2 for 4 hr and the nuclear extract from zinc-treated cells (zinc-activated MTF-1) was treated with compound 3 in vitro and DNA-binding activity of MTF-1 to MRE sequence was assessed by electrophoretic mobility shift assay (EMSA) (Panomics, Redwood City, Calif.).
To examine inactivation of MTF-1 by compound 3 in the cells, HT-29 cells were treated with compound 3 for 1 to 4 hr and DNA-binding activity of MTF-1 in the nuclear extract was assessed by EMSA.

[6] = system: normal cell lines PrEC, HMEC, WI38 and cancer cell lines DU145, MDA-MB-435, HT-29; test: Cancer cell selectivity, IC90 in normal versus cancer cell lines (XTT); format: cell-based, human; conditions: average IC90 of all normal / average IC90 of all cancer cell lines, 6 to 7 days
Text: An exemplary method of assessing the differential sensitivity between normal and cancer cells for a compound has been described by Vassilev et al. (Anti-Cancer Drug Design (2001) 16:7). This method involves the comparison of IC90 values, i.e. the molar concentration of a test compound required to cause 90% growth inhibition of exponentially growing cells. Thus, the IC90 values for candidate compounds can be evaluated in various cancer cell lines (such as those outlined above) and normal cells (such as HUVEC and/or WI38 cells) and compared. IC90 values can be measured using a variety of standard techniques as known in the art. Cancer cell selectivity is calculated as a ratio between the average IC90 for all normal cell lines and the average IC90 for all cancer cell lines. Compounds with an IC90 ratio (normal/cancer) of >4 are considered to be selective for cancer cells (L. T. Vassilev et al., Anti-cancer Drug Design, 2001, 16: 7-17).
The normal cells lines used were PrEC (prostate), HMEC (breast), and WI38 (lung fibroblast) cell lines and the cancer cells lines were DU145 (prostate), MDA-MB-435 (breast), HT-29 (colon). IC90 values were also determined for the controls doxorubicin and etoposide. The cells were cultured as generally described in Example 13. Various concentrations of the compounds were incubated with the cells for 6 to 7 days, and the number of proliferating cells was measured using the XTT assay. Cancer cell selectivity was calculated as a ratio between the average IC90 for all normal and the average IC90 for all cancer cell lines.

[7] = system: intracellular zinc ions in HT-29 cells; test: Chelation of intracellular zinc in HT-29 cells, Zinquin fluorescence; format: cell-based, human; conditions: HT-29 with or without pre-loading with 35 μM ZnCl2, 30 min
Protocol: To determine the chelation property of compound 3 with intracellular zinc ions, HT-29 cells, with or without pre-loaded with 35 μM ZnCl2 were treated with compound 3, a known zinc chelator TPEN or vehicle control (DMSO), and intracellular free zinc was determined by measuring Zinquin fluorescence as described in the preceding Example (FIG. 37). HT-29 cells (4×10^5 cells/group) were pre-treated with 35 μM ZnCl2 for 20 min, followed by addition of indicated concentrations of compound 3 or TPEN and 10 μM Zinquin for 30 min at 37° C., and the fluorescence count was measured (FIG. 37A). For measurement of chelation of endogenous zinc ions in HT-29 cells, HT-29 cells (1.5×10^6 cells/group) were treated with indicated concentrations of compound 3 and 10 μM Zinquin for 30 min at 37° C., and the fluorescence count was measured (FIG. 37B).

Cc1[nH]c2ccccc2c1-c1nc2c3cccnc3c3ncccc3c2[nH]1 [Compound 3]
p21 protein level ([1]; with 20 μM MG-132 (proteasome inhibitor)): increased p21 protein level was detected | p21 protein expression ([1]; without MG-132): comparable increase in p21 protein expression was not detected | Cyclin E expression [2]: decreased expression of Cyclin E | Cyclin D1 protein expression [3]: decrease in both gene (FIG. 43A) and protein (FIG. 43B) levels of Cyclin D1; also recorded: Decreased protein expression of Cyclin D1 | Zinquin fluorescence (free zinc ions) [4]: Dose-dependent decrease in Zinquin fluorescence | DNA-binding activity of MTF-1 ([5]; HT-29 cells treated for 1 to 4 hr): Significant decrease in MTF-1 activity | zinc-dependent MTF-1 DNA-binding activity ([5]; HT-29 treated with 1 μM for 4 hr, versus ZnCl2 positive control): zinc-dependent MTF-1 activity was not increased | DNA-binding activity of zinc-activated MTF-1 ([5]; nuclear extract of zinc-treated HT-29 cells treated in vitro): Inactivation of MTF-1 DNA-binding | Normal/cancer IC90 ratio [6]: >4.3 | intracellular free zinc (Zinquin fluorescence) [7]: Dose-dependent decrease in both pre-loaded zinc and endogenous zinc levels
